Results taken from patent publication US5924973A, “Method of treating a disease process in a luminal structure” (The Trustees of Columbia University in the City of New York, priority 1996, dated 1999).
Values joined by “and” are separate entries in the source; they are usually repeats but may differ in a detail not shown here. Equal values may be shown once.

Columns and labels:
[1] = Stability of 188Re-MAG3 in presence of Hypaque contrast agent; format: physicochemical
Method: Stability of ^188 Re-MAG3 in Presence of Hypaque Contrast Agent
^188 Re-MAG3 was prepared as in the upper case starting with an activity of 851 Mbq (23 mCi). After the End of Synthesis, QC via HPLC and TLC, 2 mL of a 50% Triazoate solution was added. Triazoate is known as Hypaque and is the 3,5-Bis(acetylamino)-2,4,6-triiodobenzoic acid sodium salt.

[2] = Biodistribution of 99mTc-MAG3 and 188Re-MAG3 in a dual label study, tail vein injection; format: in vivo, rats; conditions: ± standard deviation
Text: Biodistribution Data for ^99m Tc-MAG3 and ^188 Re-MAG3 in a dual label study

[3] = Dual label excretion studies of 188Re-MAG3 and 99mTc-MAG3 in rats (urine, feces); format: in vivo; parameters: Excretion kinetics of ^188 Re-MAG3 in feces of rats, 2 h / Excretion kinetics of ^188 Re-MAG3 in feces of rats, 8 h / Excretion kinetics of ^188 Re-MAG3 in feces of rats, 10 h / Excretion kinetics of ^188 Re-MAG3 in feces of rats, 12 h / Excretion kinetics of ^188 Re-MAG3 in feces of rats, 24 h / Excretion kinetics of ^188 Re-MAG3 in feces of rats, 48 h / Excretion kinetics of ^188 Re-MAG3 in feces of rats, Total: unit not given here
Text: Comparison of the Excretion of ^188 Re-MAG3 with ^99 mTc-MAG3 in rats
Dual Label Excretion Studies of ^188 Re-MAG3 and ^99m Tc-MAG3 in Rats

[4] = MIRD calculation of individual organ dose of released 188Re-MAG3; conditions: based on animal data and human 99mTc-MAG3 distribution
Text: As alluded to previously, the probability of balloon rupture at nominal balloon inflation pressures are substantially less than one percent. Animal experiments and calculations of the individual organ dose received by a ^188 Re-MAG3 release have been done. Because the isotope is in solution, there would be no significant local arterial deposition. In fact, attempts to intentionally deposit soluble compounds in vessel walls for their pharmacological properties have been notoriously poor. The distribution and elimination of simultaneously injected ^99 mTc-MAG3 and ^188 Re-MAG3 in rats are identical. Based upon these findings Dr. Michael Stabin of the Oak Ridge Institute for Science and Education (ORISE) has calculated, based on the MIRD formalism, the individual organ dose of released ^188 Re-MAG3. The only organ receiving a dose of greater than 5 cGy would be the urinary bladder wall. This assumes spontaneous urination every 4-6 hours. […] Thus, release of the isotope upon balloon rupture would necessitate placing a bladder catheter until the urinary counts excreted return to background. Based on animal data, and on human ^99m Tc-MAG3 distribution this should occur in less than 12 hours.

[5] = 188Re-MAG3 stability study at high radioactivity levels (HPLC, TLC); format: physicochemical
Method: Stability-^188 Re-MAG3 Stability Study at High Radioactivity Levels
^188 Re-MAG3 was prepared using the protocol as described above however using 1 mL generator eluate to dissolve the contents of a commercial MAG3 Kit and addition of 1 mL of SnCl2 /citrate solution. The starting activity in 1 ml generator eluate was 1220 Mbq (33 mCi). Thus the concentration of citrate and stannous ions were maintained, however the concentration of the Kit contents in especially the Benzoyl-MAG3 precursor is reduced to half of the original protocol.
The stability was tested using HPLC-chromatography and also TLC as additional control.

[6] = HPLC and ITLC evaluation of 188Re-MAG3 up to five hours after preparation; format: physicochemical; conditions: periods up to five hours after preparation
[7] = 20 min after mixing with Hypaque
[8] = 80 min after mixing with Hypaque
[9] = 140 min after mixing with Hypaque
[10] = EOS - before addition of Hypaque

O=C(O)C[N]1C(=O)C[N]2C(=O)C[N]3C(=O)C[S][188Re-]132=[O] [^188 Re-MAG3]
Stability in presence of Hypaque, HPLC [1, 7]: > 90% | Stability in presence of Hypaque, TLC [1, 7]: 94.4% | Stability in presence of Hypaque, TLC ([1]; 50 min after mixing with Hypaque): 90.5% | Stability in presence of Hypaque, HPLC [1, 8]: 86.6% | Stability in presence of Hypaque, TLC [1, 8]: 87.7% | Stability in presence of Hypaque, HPLC [1, 9]: 83.3% | Stability in presence of Hypaque, TLC [1, 9]: 83.3% | Stability in presence of Hypaque, HPLC [1, 10]: > 95% | Stability in presence of Hypaque, RP-Sep-Pak [1, 10]: 98.3% | Stability in presence of Hypaque, TLC [1, 10]: 97.6% | radioactive degradation product found ([1]; after mixing with Hypaque): free perrhenate | Biodistribution of ^188 Re-MAG3, blood ([2]; 2 h): 0.07 ± 0.01 % inj. dose/g tissue | Biodistribution of ^188 Re-MAG3, blood ([2]; 6 h): 0.08 ± 0.02 % inj. dose/g tissue | Biodistribution of ^188 Re-MAG3, blood ([2]; 24 h): 0.05 ± 0.02 % inj. dose/g tissue | Biodistribution of ^188 Re-MAG3, bone ([2]; 2 h): 0.09 ± 0.11 % inj. dose/g tissue | Biodistribution of ^188 Re-MAG3, bone ([2]; 6 h): 0.01 ± 0.01 % inj. dose/g tissue | Biodistribution of ^188 Re-MAG3, bone ([2]; 24 h): 0.04 ± 0.05 % inj. dose/g tissue | Biodistribution of ^188 Re-MAG3, contents of l.i. ([2]; 2 h): 0.87 ± 0.32 % inj. dose/g tissue | Biodistribution of ^188 Re-MAG3, contents of l.i. ([2]; 6 h): 1.42 ± 0.33 % inj. dose/g tissue | Biodistribution of ^188 Re-MAG3, contents of l.i. ([2]; 24 h): 0.05 ± 0.01 % inj. dose/g tissue | Biodistribution of ^188 Re-MAG3, contents of s.i. ([2]; 2 h): 1.97 ± 2.58 % inj. dose/g tissue | Biodistribution of ^188 Re-MAG3, contents of s.i. ([2]; 6 h): 0.06 ± 0.05 % inj. dose/g tissue | Biodistribution of ^188 Re-MAG3, contents of s.i. ([2]; 24 h): 0.02 ± 0.01 % inj. dose/g tissue | Biodistribution of ^188 Re-MAG3, heart ([2]; 2 h): 0.02 ± 0.03 % inj. dose/g tissue | Biodistribution of ^188 Re-MAG3, heart ([2]; 6 h): 0.00 ± 0.00 % inj. dose/g tissue | Biodistribution of ^188 Re-MAG3, heart ([2]; 24 h): 0.01 ± 0.00 % inj. dose/g tissue | Biodistribution of ^188 Re-MAG3, kidneys ([2]; 2 h): 0.12 ± 0.03 % inj. dose/g tissue | Biodistribution of ^188 Re-MAG3, kidneys ([2]; 6 h): 0.11 ± 0.02 % inj. dose/g tissue | Biodistribution of ^188 Re-MAG3, kidneys ([2]; 24 h): 0.07 ± 0.01 % inj. dose/g tissue | Biodistribution of ^188 Re-MAG3, l. intestine ([2]; 2 h): 0.06 ± 0.02 % inj. dose/g tissue | Biodistribution of ^188 Re-MAG3, l. intestine ([2]; 6 h): 0.13 ± 0.03 % inj. dose/g tissue | Biodistribution of ^188 Re-MAG3, l. intestine ([2]; 24 h): 0.02 ± 0.00 % inj. dose/g tissue | Biodistribution of ^188 Re-MAG3, liver ([2]; 2 h): 0.03 ± 0.01 % inj. dose/g tissue | Biodistribution of ^188 Re-MAG3, liver ([2]; 6 h): 0.03 ± 0.00 % inj. dose/g tissue | Biodistribution of ^188 Re-MAG3, liver ([2]; 24 h): 0.02 ± 0.00 % inj. dose/g tissue | Biodistribution of ^188 Re-MAG3, lung ([2]; 2 h): 0.05 ± 0.02 % inj. dose/g tissue | Biodistribution of ^188 Re-MAG3, lung ([2]; 6 h): 0.02 ± 0.00 % inj. dose/g tissue | Biodistribution of ^188 Re-MAG3, lung ([2]; 24 h): 0.01 ± 0.01 % inj. dose/g tissue | Biodistribution of ^188 Re-MAG3, s. intestine ([2]; 2 h): 0.06 ± 0.04 % inj. dose/g tissue | Biodistribution of ^188 Re-MAG3, s. intestine ([2]; 6 h): 0.01 ± 0.00 % inj. dose/g tissue | Biodistribution of ^188 Re-MAG3, s. intestine ([2]; 24 h): 0.01 ± 0.00 % inj. dose/g tissue | Biodistribution of ^188 Re-MAG3, spleen ([2]; 2 h): 0.03 ± 0.02 % inj. dose/g tissue | Biodistribution of ^188 Re-MAG3, spleen ([2]; 6 h): 0.00 ± 0.01 % inj. dose/g tissue | Biodistribution of ^188 Re-MAG3, spleen ([2]; 24 h): 0.02 ± 0.01 % inj. dose/g tissue | Biodistribution of ^188 Re-MAG3, thyroid ([2]; 2 h): 0.70 ± 0.49 % inj. dose/g tissue | Biodistribution of ^188 Re-MAG3, thyroid ([2]; 6 h): 0.76 ± 0.42 % inj. dose/g tissue | Biodistribution of ^188 Re-MAG3, thyroid ([2]; 24 h): 0.74 ± 0.76 % inj. dose/g tissue | Excretion kinetics of ^188 Re-MAG3 in feces of rats, 2 h ([3]; feces, 2 h, individual rats #1-4, 120 min): 0.03 and 1.50 and 0.01 | Excretion kinetics of ^188 Re-MAG3 in feces of rats, 4 h ([3]; feces, 4 h, individual rats #1-4): 0 | Excretion kinetics of ^188 Re-MAG3 in feces of rats, 6 h ([3]; feces, 6 h, individual rats #1-4): 0 | Excretion kinetics of ^188 Re-MAG3 in feces of rats, 8 h ([3]; feces, 8 h, individual rats #1-4, 480 min): 0.02 and 0 and 1.30 and 0.04 | Excretion kinetics of ^188 Re-MAG3 in feces of rats, 10 h ([3]; feces, 10 h, individual rats #1-4, 600 min): 0.41 and 3.79 and 1.79 and 1.67 | Excretion kinetics of ^188 Re-MAG3 in feces of rats, 12 h ([3]; feces, 12 h, individual rats #1-4, 720 min): 1.17 and 1.09 and 0 and 2.24 | Excretion kinetics of ^188 Re-MAG3 in feces of rats, 24 h ([3]; feces, 24 h, individual rats #1-4, 1440 min): 5.86 and 6.46 and 4.47 and 3.46 | Excretion kinetics of ^188 Re-MAG3 in feces of rats, 48 h ([3]; feces, 48 h, individual rats #1-4, 2880 min): 0.85 and 2.26 and 0.52 and 0.70 | Excretion kinetics of ^188 Re-MAG3 in feces of rats, Total ([3]; feces, Total, individual rats #1-4): 8.34 and 15.1 and 8.08 and 8.12 | Excretion kinetics of ^188 Re-MAG3 in feces of rats, Total, mean ([3]; feces, Total, mean of 4 rats, S.D. on separate line): 9.91 | distribution and elimination, 99mTc-MAG3 versus 188Re-MAG3 ([3]; simultaneously injected in rats): identical | Excretion kinetics of ^188 Re-MAG3 in urine of rats, 6 h, mean ([3]; urine, 6 h, mean of 4 rats, S.D. on separate line): 0.97 | Excretion kinetics of ^188 Re-MAG3 in urine of rats, 8 h, mean ([3]; urine, 8 h, mean of 4 rats, S.D. on separate line): 2.75 | Excretion kinetics of ^188 Re-MAG3 in urine of rats, 10 h, mean ([3]; urine, 10 h, mean of 4 rats, S.D. on separate line): 1.15 | Excretion kinetics of ^188 Re-MAG3 in urine of rats, 12 h, mean ([3]; urine, 12 h, mean of 4 rats, S.D. on separate line): 0.83 | Excretion kinetics of ^188 Re-MAG3 in urine of rats, 24 h, mean ([3]; urine, 24 h, mean of 4 rats, S.D. on separate line): 5.07 | Excretion kinetics of ^188 Re-MAG3 in urine of rats, 48 h, mean ([3]; urine, 48 h, mean of 4 rats, S.D. on separate line): 1.76 | Excretion kinetics of ^188 Re-MAG3 in urine of rats, Total, mean ([3]; urine, Total, mean of 4 rats, S.D. on separate line): 81.97 | time until urinary counts excreted return to background [4]: less than 12 hours | Stability, HPLC ([5]; 1 hour after EOS): 92.0% | Stability, HPLC ([5]; 2 hours after EOS): 91.1% | Stability, HPLC ([5]; 3 hours after EOS): 90.3% | Stability, HPLC ([5]; 4 hours after EOS): 88.3% | Stability, HPLC ([5]; 5 hours after EOS): 100.8% | Stability, HPLC ([5]; 24 hours after EOS): 92.4% | Stability, TLC ([5]; 24 hours after EOS): 93.4% | Stability, TLC ([5]; End of Synthesis (EOS)): 97.3% | Stability, HPLC ([5]; End of Synthesis (EOS), starting activity 1220 Mbq (33 mCi)): 97.3% | stability by HPLC and ITLC [6]: no decomposition or effects of radiolysis have been observed
